Assay results as given in ChEMBL document CHEMBL5653631, “A Potent and Selective ULK1 Inhibitor Suppresses Autophagy and Sensitizes Cancer Cells to Nutrient Stress” (iScience, 2018).
Blank lines part the entries; values can stand above or below the compound they belong to.

Tests used:
[1] = molecular target: T1, NUAK family SNF1-like kinase 2 (Homo sapiens) (UniProt Q9H093); experiment: Inhibition of human recombinant NuaK2 at 500 nM in presence of ATP by radiometric assay relative to control
T1 sequence (whole entry): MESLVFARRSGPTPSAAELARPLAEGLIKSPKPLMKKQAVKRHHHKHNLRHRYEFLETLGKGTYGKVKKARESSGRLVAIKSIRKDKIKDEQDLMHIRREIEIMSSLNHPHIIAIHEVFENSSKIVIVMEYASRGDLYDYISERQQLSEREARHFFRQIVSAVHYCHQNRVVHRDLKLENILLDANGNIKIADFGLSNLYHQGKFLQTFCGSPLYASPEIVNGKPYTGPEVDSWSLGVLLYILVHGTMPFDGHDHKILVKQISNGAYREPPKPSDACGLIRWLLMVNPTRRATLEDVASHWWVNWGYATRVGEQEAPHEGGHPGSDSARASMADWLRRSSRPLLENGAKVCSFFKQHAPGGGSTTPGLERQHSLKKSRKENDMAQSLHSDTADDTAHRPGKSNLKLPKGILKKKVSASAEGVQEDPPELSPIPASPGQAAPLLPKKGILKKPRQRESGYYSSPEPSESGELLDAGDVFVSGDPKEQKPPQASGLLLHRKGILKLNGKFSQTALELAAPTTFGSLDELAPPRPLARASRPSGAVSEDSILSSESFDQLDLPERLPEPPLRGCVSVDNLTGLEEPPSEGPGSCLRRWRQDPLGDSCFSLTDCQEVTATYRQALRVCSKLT

[2] = molecular target: Cyclin-dependent kinase 1 (Homo sapiens) (UniProt P06493); experiment: Inhibition of human recombinant CDC2 at 500 nM in presence of ATP by radiometric assay relative to control
[3] = molecular target: Myosin light chain kinase 2, skeletal/cardiac muscle (Homo sapiens) (UniProt Q9H1R3); experiment: Inhibition of human recombinant skMLCK at 15 nM related to control ULK1
[4] = molecular target: T2, Mitogen-activated protein kinase 13 (Homo sapiens) (UniProt O15264); experiment: Inhibition of human recombinant p38delta at 15 nM in presence of ATP by radiometric assay relative to control
T2 sequence (whole entry): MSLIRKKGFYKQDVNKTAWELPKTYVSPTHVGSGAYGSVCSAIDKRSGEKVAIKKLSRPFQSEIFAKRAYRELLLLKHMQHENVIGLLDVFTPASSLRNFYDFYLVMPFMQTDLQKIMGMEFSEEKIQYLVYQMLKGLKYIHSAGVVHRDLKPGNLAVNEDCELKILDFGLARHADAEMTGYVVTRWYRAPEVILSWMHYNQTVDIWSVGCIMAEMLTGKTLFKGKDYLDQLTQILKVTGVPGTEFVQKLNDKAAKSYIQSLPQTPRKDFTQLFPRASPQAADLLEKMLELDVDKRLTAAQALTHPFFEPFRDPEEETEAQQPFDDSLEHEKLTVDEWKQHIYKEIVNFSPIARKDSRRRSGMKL

[5] = molecular target: Epithelial discoidin domain-containing receptor 1 (Homo sapiens) (UniProt Q08345); experiment: Inhibition of human recombinant DDR1 at 15 nM in presence of ATP by radiometric assay relative to control
[6] = molecular target: Cyclin-dependent kinase 4 (Homo sapiens) (UniProt P11802); experiment: Inhibition of human recombinant CDK4 at 40 nM in presence of ATP by radiometric assay relative to control
[7] = molecular target: Maternal embryonic leucine zipper kinase (Homo sapiens) (UniProt Q14680); experiment: Inhibition of human recombinant MELK at 40 nM in presence of ATP by radiometric assay relative to control
[8] = molecular target: T3, Myotonin-protein kinase (Homo sapiens) (UniProt Q09013); experiment: Inhibition of human recombinant DMPK1 at 40 nM related to control ULK1
T3 sequence (whole entry): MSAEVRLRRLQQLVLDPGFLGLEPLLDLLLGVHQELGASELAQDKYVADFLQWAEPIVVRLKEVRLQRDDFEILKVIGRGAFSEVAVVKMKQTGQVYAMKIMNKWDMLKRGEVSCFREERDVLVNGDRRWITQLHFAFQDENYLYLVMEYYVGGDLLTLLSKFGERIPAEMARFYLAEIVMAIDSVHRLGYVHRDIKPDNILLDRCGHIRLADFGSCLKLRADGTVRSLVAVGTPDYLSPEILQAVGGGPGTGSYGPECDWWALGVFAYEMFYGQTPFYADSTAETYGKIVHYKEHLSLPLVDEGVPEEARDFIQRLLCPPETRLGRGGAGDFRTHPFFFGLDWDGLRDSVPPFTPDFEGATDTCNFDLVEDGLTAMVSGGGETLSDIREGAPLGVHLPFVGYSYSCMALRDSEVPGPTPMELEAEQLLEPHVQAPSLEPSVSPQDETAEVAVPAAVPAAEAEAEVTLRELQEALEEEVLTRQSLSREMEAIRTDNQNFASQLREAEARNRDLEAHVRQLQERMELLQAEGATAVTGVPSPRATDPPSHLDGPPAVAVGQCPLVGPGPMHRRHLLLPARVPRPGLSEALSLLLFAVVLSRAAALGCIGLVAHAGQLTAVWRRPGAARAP

[9] = molecular target: T4, Serine/threonine-protein kinase NLK (Homo sapiens) (UniProt Q9UBE8); experiment: Inhibition of human recombinant NLK at 40 nM in presence of ATP by radiometric assay relative to control
T4 sequence (whole entry): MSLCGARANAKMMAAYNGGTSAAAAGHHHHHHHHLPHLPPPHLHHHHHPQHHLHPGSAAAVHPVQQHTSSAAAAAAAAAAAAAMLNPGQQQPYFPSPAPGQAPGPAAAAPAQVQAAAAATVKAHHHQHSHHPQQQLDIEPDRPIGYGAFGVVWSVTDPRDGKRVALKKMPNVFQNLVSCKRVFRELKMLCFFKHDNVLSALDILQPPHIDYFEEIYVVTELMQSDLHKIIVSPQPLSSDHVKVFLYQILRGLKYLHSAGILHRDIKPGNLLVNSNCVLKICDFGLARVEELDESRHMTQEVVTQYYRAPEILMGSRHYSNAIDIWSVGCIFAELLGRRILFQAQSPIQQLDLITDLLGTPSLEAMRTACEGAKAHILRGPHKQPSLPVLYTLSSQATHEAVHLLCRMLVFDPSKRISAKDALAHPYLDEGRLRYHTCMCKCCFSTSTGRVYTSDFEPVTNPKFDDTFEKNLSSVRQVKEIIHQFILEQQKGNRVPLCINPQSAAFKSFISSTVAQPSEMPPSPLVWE

Chain of Maternal embryonic leucine zipper kinase (Homo sapiens) (Q14680 whole entry, looked up): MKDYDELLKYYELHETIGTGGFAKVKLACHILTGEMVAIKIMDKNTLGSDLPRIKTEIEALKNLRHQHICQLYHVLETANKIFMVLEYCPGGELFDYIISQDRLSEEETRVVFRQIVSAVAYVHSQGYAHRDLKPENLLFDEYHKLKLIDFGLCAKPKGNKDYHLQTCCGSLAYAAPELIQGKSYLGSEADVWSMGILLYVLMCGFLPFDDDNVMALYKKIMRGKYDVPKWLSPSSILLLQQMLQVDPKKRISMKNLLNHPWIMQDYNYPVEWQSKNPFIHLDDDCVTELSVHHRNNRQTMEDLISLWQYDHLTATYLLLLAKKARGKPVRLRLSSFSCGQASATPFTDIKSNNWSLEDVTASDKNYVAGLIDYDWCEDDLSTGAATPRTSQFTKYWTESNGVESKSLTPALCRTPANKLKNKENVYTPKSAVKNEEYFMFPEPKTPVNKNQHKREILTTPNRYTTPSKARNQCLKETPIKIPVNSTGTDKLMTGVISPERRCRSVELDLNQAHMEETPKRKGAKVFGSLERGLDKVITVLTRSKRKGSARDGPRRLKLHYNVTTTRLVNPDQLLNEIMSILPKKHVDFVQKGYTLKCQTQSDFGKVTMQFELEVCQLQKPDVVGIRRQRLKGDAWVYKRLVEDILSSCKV
Chain of Cyclin-dependent kinase 4 (Homo sapiens) (P11802 whole entry): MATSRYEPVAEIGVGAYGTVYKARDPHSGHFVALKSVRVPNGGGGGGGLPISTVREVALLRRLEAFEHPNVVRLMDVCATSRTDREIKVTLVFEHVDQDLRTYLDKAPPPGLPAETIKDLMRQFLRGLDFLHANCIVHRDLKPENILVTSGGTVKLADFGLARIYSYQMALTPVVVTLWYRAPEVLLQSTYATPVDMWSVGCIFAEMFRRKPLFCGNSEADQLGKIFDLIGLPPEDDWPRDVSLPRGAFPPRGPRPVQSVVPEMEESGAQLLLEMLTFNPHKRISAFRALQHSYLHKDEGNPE
Chain of Cyclin-dependent kinase 1 (Homo sapiens) (P06493 whole entry, looked up): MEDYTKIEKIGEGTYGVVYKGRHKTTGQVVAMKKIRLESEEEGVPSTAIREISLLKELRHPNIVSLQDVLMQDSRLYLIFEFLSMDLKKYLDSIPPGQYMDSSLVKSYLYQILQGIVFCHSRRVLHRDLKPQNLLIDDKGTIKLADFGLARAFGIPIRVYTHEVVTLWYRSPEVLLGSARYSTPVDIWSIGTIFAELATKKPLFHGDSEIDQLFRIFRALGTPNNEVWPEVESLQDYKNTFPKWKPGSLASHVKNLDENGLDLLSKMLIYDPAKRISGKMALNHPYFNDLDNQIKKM
Chain of Epithelial discoidin domain-containing receptor 1 (Homo sapiens) (Q08345 whole entry, the tested form may be a part): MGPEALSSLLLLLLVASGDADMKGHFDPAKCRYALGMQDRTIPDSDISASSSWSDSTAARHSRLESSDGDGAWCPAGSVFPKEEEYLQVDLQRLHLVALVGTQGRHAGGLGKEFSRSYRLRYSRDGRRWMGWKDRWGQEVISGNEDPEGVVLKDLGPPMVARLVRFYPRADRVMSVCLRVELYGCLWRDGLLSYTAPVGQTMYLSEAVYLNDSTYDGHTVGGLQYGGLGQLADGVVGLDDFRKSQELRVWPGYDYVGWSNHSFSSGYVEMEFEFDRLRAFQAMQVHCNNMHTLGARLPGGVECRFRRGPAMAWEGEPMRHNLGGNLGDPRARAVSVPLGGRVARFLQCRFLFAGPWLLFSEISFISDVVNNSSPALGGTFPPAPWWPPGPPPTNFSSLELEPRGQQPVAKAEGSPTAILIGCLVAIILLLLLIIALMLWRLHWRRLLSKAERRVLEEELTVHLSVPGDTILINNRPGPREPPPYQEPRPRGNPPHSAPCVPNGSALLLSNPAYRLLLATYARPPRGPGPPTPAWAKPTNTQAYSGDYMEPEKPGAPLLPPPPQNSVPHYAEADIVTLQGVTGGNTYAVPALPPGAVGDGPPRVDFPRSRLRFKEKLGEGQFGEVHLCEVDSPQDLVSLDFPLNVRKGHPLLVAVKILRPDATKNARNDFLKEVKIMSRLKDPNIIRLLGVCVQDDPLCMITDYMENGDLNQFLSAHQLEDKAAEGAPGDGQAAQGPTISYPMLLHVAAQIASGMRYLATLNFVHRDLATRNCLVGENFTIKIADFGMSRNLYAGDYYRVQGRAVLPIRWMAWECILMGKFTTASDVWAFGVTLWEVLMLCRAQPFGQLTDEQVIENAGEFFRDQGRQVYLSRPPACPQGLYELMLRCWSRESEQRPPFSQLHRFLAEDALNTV
Chain of Myosin light chain kinase 2, skeletal/cardiac muscle (Homo sapiens) (Q9H1R3 whole entry): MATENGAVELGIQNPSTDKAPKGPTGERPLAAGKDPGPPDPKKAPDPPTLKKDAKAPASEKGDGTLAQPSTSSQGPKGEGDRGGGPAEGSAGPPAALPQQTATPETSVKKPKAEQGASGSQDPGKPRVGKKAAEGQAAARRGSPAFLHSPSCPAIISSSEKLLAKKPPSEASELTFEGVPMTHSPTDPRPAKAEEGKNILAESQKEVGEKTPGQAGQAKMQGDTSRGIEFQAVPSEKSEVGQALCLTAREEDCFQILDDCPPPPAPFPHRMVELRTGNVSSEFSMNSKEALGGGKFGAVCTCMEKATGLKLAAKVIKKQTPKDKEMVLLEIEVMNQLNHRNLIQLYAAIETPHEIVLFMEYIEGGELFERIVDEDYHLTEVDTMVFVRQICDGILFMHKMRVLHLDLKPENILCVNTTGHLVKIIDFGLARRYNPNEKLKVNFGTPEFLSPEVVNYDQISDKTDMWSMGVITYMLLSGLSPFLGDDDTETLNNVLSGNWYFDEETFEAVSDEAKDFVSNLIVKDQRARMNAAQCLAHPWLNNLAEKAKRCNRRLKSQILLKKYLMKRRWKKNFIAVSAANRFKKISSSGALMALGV

- inhibition [1]: 64%
- inhibition [2]: 30%
SMILES: CNC(=O)c1ccccc1Oc1nc(Nc2cc(OC)c(OC)c(OC)c2)ncc1Br

- fold change (FC) [3]: 0.13
- inhibition [4]: 6%
- inhibition [5]: 78%
SMILES: CC(C)[C@H](NC(=O)c1cc(-c2cnn3cc(-c4ccc(OCCN5CCCCC5)cc4)cnc23)cs1)C(F)(F)F

- inhibition [6]: 0%
- inhibition [7]: 20%
- fold change (FC) [8]: 0.07
- inhibition [9]: 47%
SMILES: O=C(N[C@@H](C1CC1)C(F)(F)F)c1cc(-c2cnn3cc(-c4ccc(F)cc4)cnc23)cs1
